Experimental data: patent US5061795A, “Hexa-cyclic compound” (Daiichi Pharmaceutical Co., Ltd., priority 1987, dated 1991)
≈ marks a conversion by molar mass, not a printed value. Where two headings read alike, the source gives them in different places.

Legend:
[1] = system: Mouse leukemia P388 cells; assay: MTT assay on mouse leukemia P388 cells, 72 hours; format: cell-based
Protocol: Mouse leukemia P388 cells, harvested from a pre-culture medium, were suspended in a fresh PRMI 1640 medium supplemented with 10% FCS (GIBCO) and inoculated in a volume of 0.05 ml at 2.5×10^3/ml cells per well in 96-well microplates. Following 24 hour incubation at 37° C. under 5% CO2 and 100 relative humidity, 0.05 ml of the culture medium or a culture medium containing a test compound was dispersed into each well. The cells in the medium were then incubated for 72 hours. At 4 hours before the end of incubation, 0.01 ml of MTT [3-(4,5-dimethylthiazol-2-yl)-2,5-diphenyl-2H-tetrazolium bromide] solution dissolved in phosphate-buffer saline at a concentration of 5 mg/ml was added. After 4 hour exposure with the MTT solution, the reaction was stopped by the addition of 0.2 ml/well of 1M HCl:i-propanol (1:24) followed by thorough mixing. The optical density of the solution was measured by EAR 400 (SLT Labinstruments, Austria) at 540 nm.

[2] = system: P388 mouse leukemia cells; assay: Growth inhibition of P388 mouse leukemia cells, cell count after 72 hours; format: cell-based
Protocol: A test compound was added to a suspension containing P388 mouse leukemia cells (2×10^4 /ml) and the cells were cultured in 5% CO2 at […]. After 72 hours, the number of the cells were counted to determine the IC50 value.

[3] = system: nucleic acid synthesis; conditions: background statement; cited from earlier work
[4] = clinical tests conducted in the United States; cited from earlier work
[5] = system: P388 murine leukemia cells; assay: Antitumour effect against P388 murine leukemia in male CDF-1 mice (median survival time); format: in vivo, mouse; conditions: for Mice Survived for 40 days: intraperitoneal on day 1, CDF-1 mice; for T/C (median survival time of treated group against control group): intraperitoneal on day 1, P388 cells inoculated on day 0, CDF-1 mice
Protocol: P388 murine leukemia cells (1×10^6 /mouse) were inoculated into male CDF-1 mice (5-6 mice per group, age 7-10 weeks, weighing 21-34 g) on day 0, and the test compound was administered intraperitoneally on day 1.
The test compound were dissolved in water or physiological saline after having been converted into sodium salts, or suspended into a physiological saline containing 0.9% benzyl alcohol, 0.4% Tween 80, or 0.5% CMC.
The antitumour effect was evaluated by the percentage of the median survival time of the treated group (T) against that of the control group (C).

[6] = repeated in the table of Experimental Example 3, footnote *, read-out: IC50 (in parentheses; value obtained by determination in Experimental Example 2)

Compound | IC50 [1] [ng/mL] | IC50 ([2]; cell count, read-out: IC50) [ng/mL] | further results
CC[C@@]1(O)C(=O)OCc2c1cc1n(c2=O)Cc2c-1nc1ccc(CNC)c3c1c2CCS3.Cl [Example 36, (s)-9-ethyl-1,2-dihydro-9-hydroxy-4-methylaminomethyl-12H-thiino[4,3,2-de]pyrano[3',4':6,7]indolizino[1,2-b]quinoline-10,13(9H,15H)-dione hydrochloride] | 12.2 | – | –
CC[C@@]1(O)C(=O)OCc2c1cc1n(c2=O)Cc2c-1nc1ccc(CN)c3c1c2CCC3.Cl [Example 33, (s)-4-aminomethyl-9-ethyl-2,3-dihydro-9-hydroxy-1H,12H-benzo[de]pyrano[3',4':6,7]indolizino[1,2-b]quinoline-10,13(9H,15H)-dione hydrochloride] | 5.52 | – | –
CCC1(O)C(=O)OCc2c1cc1n(c2=O)Cc2c-1nc1ccc(Cl)c3c1c2CCC3 (stereo not shown) [Example 5, 4-chloro-9-ethyl-2,3-dihydro-9-hydroxy-1H,12H-benzo[de]pyrano[3',4':6,7]indolizino[1,2-b]quinoline-10,13(9H,15H)-dione] | – | 3.3 (≈ 7.8 nM) | –
CC[C@@]1(O)C(=O)OCc2c1cc1n(c2=O)Cc2cc3ccccc3nc2-1 [Camptothecin] | – | – | antitumour activity [3]: known to exhibit an antitumour activity because of its capability of inhibiting nucleic acid synthesis; safety in clinical tests [4]: found to have a problem in view of safety
CCC1(O)C(=O)OCc2c1cc1n(c2=O)Cc2c-1nc1ccc(N)c3c1c2CCC3 (stereo not shown) [Example 39, 4-amino-9-ethyl-2,3-dihydro-9-hydroxy-1H,12H-benzo[de]pyrano [3',3':6,7]indolizino[1,2-b]quinoline-10,13(9H,15H)-dione] | 2.97 (≈ 7.36 nM) | – | –
CCC1(O)C(=O)OCc2c1cc1n(c2=O)Cc2c-1nc1ccc(O)c3c1c2CC3 (stereo not shown) [Example 8, 8-ethyl-1,2-dihydro-3,8-dihydroxy-11H-cyclopenta[de]pyrano[3',4':6,7]indolizino[1,2-b]quinoline-9,12(8H,14H)-dione] | – | 3.03 (≈ 7.76 nM) | –
CC[C@@]1(O)C(=O)OCc2c1cc1n(c2=O)Cc2c-1nc1ccc(CN)c3c1c2CCO3.Cl [Example 38, (s)-4-aminomethyl-9-ethyl-1,2-dihydro-9-hydroxy-12H-pyrano[4,3,2-de]pyrano[3',4':6,7]indolizino[1,2-b]quinoline-10,13(9H,15H)-dione hydrochloride] | 6.36 | – | –
CCC1(O)C(=O)OCc2c1cc1n(c2=O)Cc2c-1nc1ccc(N)c3c1c2CCS3 (stereo not shown) [Example 20, 4-amino-1,2-dihydro-9-ethyl-9-hydroxy-12H-thiino[4,3,2,-de]pyrano[3',4': 6,7]indolizino [1,2-b]quinoline-10,13(9H,15H)-dione] | – | 0.92 (≈ 2.18 nM) | –
CCC1(O)C(=O)OCc2c1cc1n(c2=O)Cc2c-1nc1ccc(C)c3c1c2CCO3 (stereo not shown) [Example 2, 9-ethyl-1,2-dihydro-9-hydroxy-4-methyl-12H-pyrano[4,3,2-de]pyrano[3',4':6,7]indolizino[1,2-b]quinoline-10,13(9H,15H)-dione] | – | 0.81 (≈ 2 nM) | Mice Survived for 40 days ([5]; 480 mg/kg): 4 Out of 6; T/C (median survival time of treated group against control group) ([5]; 480 mg/kg): > 376%
CC[C@@]1(O)C(=O)OCc2c1cc1n(c2=O)Cc2c-1nc1ccc(CN)c3c1c2CCS3.Cl [Example 31, (s)-4-aminomethyl-9-ethyl-1,2-dihydro-9-hydroxy-12H-thiino[4,3,2-de]pyrano[3',4':6,7]indolizino[1,2-b]quinoline-10,13(9H,15H)-dione hydrochloride] | 3.66 | – | –
CCC1(O)C(=O)OCc2c1cc1n(c2=O)Cc2c-1nc1cccc3c1c2CCS3 (stereo not shown) [Example 21, 1,2-dihydro-9-ethyl-9-hydroxy-12H-thiino[4,3,2,-de]pyrano[3',4': 6,7]indolizino[1,2-b]quinoline-10,13(9H,15H)-dione] | – | 3.41 (≈ 8.39 nM) | –
CCC1(O)C(=O)OCc2c1cc1n(c2=O)Cc2c-1nc1ccc(O)c3c1c2CCO3 (stereo not shown) [Example 11, 9-ethyl-1,2-dihydro-4,9-dihydroxy-12H-pyrano[4,3,2-de]pyrano[3',4':6,7]indolizino[1,2-b]quinoline-10,13(9H,15H)-dione] | 4.05 (≈ 9.97 nM) | 2.64 (≈ 6.5 nM) | IC50 [2, 6]: 2.64 ng/mL (≈ 6.5 nM)
CCC1(O)C(=O)OCc2c1cc1n(c2=O)Cc2c-1nc1ccc(O)c3c1c2CCC3 (stereo not shown) [Example 1, 9-ethyl-2,3-dihydro-4,9-dihydroxy-1H,12H-benzo[de]pyrano[3',4': 6,7]indolizino[1,2-b]quinoline-10,13(9H,15H)-dione] | 3.8 (≈ 9.4 nM) | 1.47 (≈ 3.63 nM) | IC50 [2, 6]: 1.47 ng/mL (≈ 3.63 nM); Mice Survived for 40 days ([5]; 240 mg/kg): 5 Out of 6; T/C (median survival time of treated group against control group) ([5]; 240 mg/kg): > 392%
CCC1(O)C(=O)OCc2c1cc1n(c2=O)Cc2c-1nc1ccc(C)c3c1c2CCS3 (stereo not shown) [Example 3, 9-ethyl-1,2-dihydro-9-hydroxy-4-methyl-12H-thiino[4,3,2-de]pyrano[3',4':6,7]indolizino[1,2-b]quinoline-10,13(9H,15H)-dione] | – | 4.32 (≈ 10.3 nM) | Mice Survived for 40 days ([5]; 480 mg/kg): 5 Out of 6; T/C (median survival time of treated group against control group) ([5]; 480 mg/kg): > 400%
CCC1(O)C(=O)OCc2c1cc1n(c2=O)Cc2c-1nc1ccc(C#N)c3c1c2CCS3 (stereo not shown) [Example 16, 4-cyano-1,2-dihydro-9-ethyl-9-hydroxy-12H-thiino[4,3,2-de]pyrano[3',4':6,7]indolizino[1,2-b]quinoline-10,13(9H,15H)dione] | – | 7.23 (≈ 16.8 nM) | Mice Survived for 40 days ([5]; 60 mg/kg): 4 Out of 6; T/C (median survival time of treated group against control group) ([5]; 60 mg/kg): 443%
CCC1(O)C(=O)OCc2c1cc1n(c2=O)Cc2c-1nc1ccc(C)c3c1c2CCN3 (stereo not shown) [Example 4, 9-ethyl-1,2-dihydro-9-hydroxy-4-methyl-3H,12H-pyrano[3',4': 6,7]indolizino[1,2-c]benzo[ij][2,7]naphthilidine-10,13(9H,15H)-dione] | 4.46 (≈ 11.1 nM) | 3.73 (≈ 9.25 nM) | IC50 [2, 6]: 3.73 ng/mL (≈ 9.25 nM)
